Data set [1] addresses T1, CYP1A2 (Homo sapiens, UniProt P05177).
T1 construct: from tissue; host or cells: pooled human liver microsomes
T1 sequence (P05177 1-516): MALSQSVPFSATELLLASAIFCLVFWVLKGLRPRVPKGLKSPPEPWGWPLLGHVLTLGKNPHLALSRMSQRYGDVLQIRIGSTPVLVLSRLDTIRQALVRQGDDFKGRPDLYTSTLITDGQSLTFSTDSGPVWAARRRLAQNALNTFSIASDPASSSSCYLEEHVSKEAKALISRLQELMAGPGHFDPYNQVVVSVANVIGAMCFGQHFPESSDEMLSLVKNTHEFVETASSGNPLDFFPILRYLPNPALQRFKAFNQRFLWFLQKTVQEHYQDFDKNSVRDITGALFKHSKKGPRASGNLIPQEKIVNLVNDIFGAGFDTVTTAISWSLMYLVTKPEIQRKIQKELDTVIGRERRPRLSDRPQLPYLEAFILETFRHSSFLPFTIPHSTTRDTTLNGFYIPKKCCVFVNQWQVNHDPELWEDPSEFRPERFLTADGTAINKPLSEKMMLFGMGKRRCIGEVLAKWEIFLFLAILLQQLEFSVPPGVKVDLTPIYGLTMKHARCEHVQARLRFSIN
The data set can be described thus: CYP1A2 inhibition, phenacetin O-deethylation in pooled HLMs. The format is in vitro ADME. Conditions: DHM 100 μM. Here is the method:
(§1) All incubations were performed in triplicate, and the mean values were utilized. The typical incubation systems contained 100 mM potassium phosphate buffer (pH 7.4), NADPH-generating system (1 mM NADP^+, 10 mM glucose-6-phosphate, 1 U/mL of glucose-6-phosphate dehydrogenase, and 4 mM MgCl2), the appropriate concentration of HLM, a corresponding probe substrate and DHM (or positive inhibitor for different probe reactions) in a final volume of 200 μL.
(§2) The concentration of DHM was 100 μM, and the positive inhibitor concentrations were as follows: 10 μM furafylline for CYP1A2, 1 μM ketoconazole for CYP3A4, 10 μM tranylcypromine for CYP2A6, 50 μM clomethiazole for CYP2E1, 10 μM quinidine for CYP2D6, 10 μM sulphaphenazole for CYP2C9, 50 μM tranylcypromine for CYP2C19 and 5 μM montelukast for CYP2C8. Probe substrates, positive inhibitors (except for dextromethorphan and quinidine which were dissolved in water) and DHM were dissolved in methanol, with a final concentration of 1% (v/v), and 1% neat methanol was added to the incubations without inhibitor. […] The instrument used in this study were Agilent 1260 series instrument with DAD and FLD detector (Agilent Technologies, Palo Alto, CA), and the quantitative assay for the corresponding metabolites was performed as previously reported by us (Zhang et al. [2016]). […]

In data set [2] the target is T2, CYP3A4 (Homo sapiens, UniProt P08684).
T2 construct: CYP3A4 catalyzed reactions (testosterone 6β-hydroxylation) in pooled HLM; from tissue; host or cells: pooled human liver microsomes
T2 sequence (P08684 whole entry): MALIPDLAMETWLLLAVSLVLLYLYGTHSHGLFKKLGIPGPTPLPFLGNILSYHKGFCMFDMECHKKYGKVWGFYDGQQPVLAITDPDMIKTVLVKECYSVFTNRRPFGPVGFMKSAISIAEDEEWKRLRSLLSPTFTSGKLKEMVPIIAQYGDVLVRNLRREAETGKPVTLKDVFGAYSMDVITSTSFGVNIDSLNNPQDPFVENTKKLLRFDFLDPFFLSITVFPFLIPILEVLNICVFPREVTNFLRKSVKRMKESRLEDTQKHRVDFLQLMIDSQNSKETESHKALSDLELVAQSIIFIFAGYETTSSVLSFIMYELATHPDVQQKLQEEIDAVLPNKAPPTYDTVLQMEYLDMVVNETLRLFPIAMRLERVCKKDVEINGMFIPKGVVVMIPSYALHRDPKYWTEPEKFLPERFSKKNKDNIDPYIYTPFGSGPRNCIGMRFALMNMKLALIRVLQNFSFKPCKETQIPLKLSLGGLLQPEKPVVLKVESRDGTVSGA
The data set can be described thus: CYP3A4 inhibition, testosterone 6β-hydroxylation in pooled HLMs. The format is in vitro ADME. Here is the method:
as §1
(§3) The concentration of DHM was 100 μM, and the positive inhibitor concentrations were as follows: 10 μM furafylline for CYP1A2, 1 μM ketoconazole for CYP3A4, 10 μM tranylcypromine for CYP2A6, 50 μM clomethiazole for CYP2E1, 10 μM quinidine for CYP2D6, 10 μM sulphaphenazole for CYP2C9, 50 μM tranylcypromine for CYP2C19 and 5 μM montelukast for CYP2C8. Probe substrates, positive inhibitors (except for dextromethorphan and quinidine which were dissolved in water) and DHM were dissolved in methanol, with a final concentration of 1% (v/v), and 1% neat methanol was added to the incubations without inhibitor. There was a 3-min preincubation period (at 37 °C) before the reaction was initiated by adding a NADPH-generating system. The reaction was terminated by adding a 100 μL acetonitrile (10% trichloroacetic acid for CYP2A6) internal standard mix, and the solution was placed on ice. The mixture was centrifuged at 12,000 rpm for 10 min, and an aliquot (50 μL) of supernatant was transferred for HPLC analysis. The instrument used in this study were Agilent 1260 series instrument with DAD and FLD detector (Agilent Technologies, Palo Alto, CA), and the quantitative assay for the corresponding metabolites was performed as previously reported by us (Zhang et al. [2016]).
(§4) A 100 μM DHM was used to initially screen for its direct inhibitory effects toward different human CYP isoforms. […] The residual activity of the CYP isoforms were measured by adding different concentrations of DHM (0–100 μM), and then the IC50 values were calculated. […]
(§5) The enzyme kinetic parameters for the probe reaction were estimated from the best fit line using least-squares linear regression of the inverse substrate concentration versus the inverse velocity (Lineweaver–Burk plots), and the mean values were used to calculate Vmax and Km. Inhibition data from the experiments that were conducted using multiple compound concentrations were represented by Dixon plots, and inhibition constant (Ki) values were calculated using non-linear regression according to the following equation: v=(VmaxS)/(Km(1+I/Ki)+S), where I is the concentration of the compound, Ki is the inhibition constant, S is the concentration of the substrate and Km is the substrate concentration at half the maximum velocity (Vmax) of the reaction. […]

Data set [3] has as its target T3, CYP2A6 (Homo sapiens, UniProt P11509).
T3 construct: from tissue; host or cells: pooled human liver microsomes
T3 sequence (P11509 1-494): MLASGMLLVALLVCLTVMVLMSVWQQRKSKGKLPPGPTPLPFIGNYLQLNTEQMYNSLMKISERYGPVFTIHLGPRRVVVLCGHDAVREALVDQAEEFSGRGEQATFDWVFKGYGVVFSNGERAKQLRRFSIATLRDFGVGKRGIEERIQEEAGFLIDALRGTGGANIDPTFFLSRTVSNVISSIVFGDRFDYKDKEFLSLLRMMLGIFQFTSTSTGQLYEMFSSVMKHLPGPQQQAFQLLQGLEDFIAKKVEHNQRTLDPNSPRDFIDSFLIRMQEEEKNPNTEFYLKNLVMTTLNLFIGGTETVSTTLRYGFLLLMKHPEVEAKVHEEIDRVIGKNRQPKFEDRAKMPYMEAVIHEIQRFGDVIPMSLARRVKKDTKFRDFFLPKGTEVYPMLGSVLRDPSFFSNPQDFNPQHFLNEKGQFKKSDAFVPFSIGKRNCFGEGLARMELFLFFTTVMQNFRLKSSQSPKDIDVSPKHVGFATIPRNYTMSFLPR
The data set can be described thus: CYP2A6 inhibition, coumarin 7-hydroxylation in pooled HLMs. It is filed as in vitro ADME. Conditions: DHM 100 μM. Here is the method:
as §1, §2

Data set [4] deals with T4, CYP2E1 (Homo sapiens, UniProt P05181).
T4 construct: CYP2E1 catalyzed reactions (chlorzoxazone 6-hydroxylation) in pooled HLM; from tissue; host or cells: pooled human liver microsomes
T4 sequence (P05181 whole entry): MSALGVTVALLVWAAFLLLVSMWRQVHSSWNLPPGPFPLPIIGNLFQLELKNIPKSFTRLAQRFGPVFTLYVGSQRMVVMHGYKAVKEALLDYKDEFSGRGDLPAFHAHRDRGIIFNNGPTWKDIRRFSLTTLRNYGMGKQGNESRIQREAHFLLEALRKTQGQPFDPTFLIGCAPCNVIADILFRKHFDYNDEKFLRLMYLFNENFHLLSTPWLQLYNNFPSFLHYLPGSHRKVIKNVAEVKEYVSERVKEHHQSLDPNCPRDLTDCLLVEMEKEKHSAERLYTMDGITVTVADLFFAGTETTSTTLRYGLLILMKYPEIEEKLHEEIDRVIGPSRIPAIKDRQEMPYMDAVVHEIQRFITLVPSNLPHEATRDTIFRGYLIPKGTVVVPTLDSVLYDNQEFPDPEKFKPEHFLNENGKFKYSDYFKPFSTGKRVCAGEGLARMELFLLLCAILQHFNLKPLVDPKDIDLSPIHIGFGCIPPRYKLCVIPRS
The data set can be described thus: CYP2E1 inhibition, chlorzoxazone 6-hydroxylation in pooled HLMs. The format is in vitro ADME.

The target of data set [5] is T5, CYP2D6 (Homo sapiens, UniProt P10635).
T5 construct: CYP2D6 catalyzed reactions (dextromethorphan O-demethylation) in pooled HLM; from tissue; host or cells: pooled human liver microsomes
T5 sequence (P10635 whole entry): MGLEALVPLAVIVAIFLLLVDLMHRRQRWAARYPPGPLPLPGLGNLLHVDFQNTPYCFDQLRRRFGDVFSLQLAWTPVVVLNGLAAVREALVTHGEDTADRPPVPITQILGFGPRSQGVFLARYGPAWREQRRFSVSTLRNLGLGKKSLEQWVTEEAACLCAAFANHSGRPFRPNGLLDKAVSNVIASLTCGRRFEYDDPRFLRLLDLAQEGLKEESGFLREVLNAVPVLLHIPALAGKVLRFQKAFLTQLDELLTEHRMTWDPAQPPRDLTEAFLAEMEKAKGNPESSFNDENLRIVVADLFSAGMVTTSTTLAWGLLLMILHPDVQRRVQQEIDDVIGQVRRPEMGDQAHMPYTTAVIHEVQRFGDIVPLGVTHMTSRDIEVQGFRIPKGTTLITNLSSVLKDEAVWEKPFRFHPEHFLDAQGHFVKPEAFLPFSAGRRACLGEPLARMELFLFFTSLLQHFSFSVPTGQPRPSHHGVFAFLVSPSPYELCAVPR
The data set can be described thus: CYP2D6 inhibition, dextromethorphan O-demethylation in pooled HLMs. It is filed as in vitro ADME. As for the experimental part: as §1, §3, §4, §5

Data set [6] addresses T6, CYP2C9 (Homo sapiens, UniProt P11712).
T6 construct: from tissue; host or cells: pooled human liver microsomes
The data set can be described thus: CYP2C9 inhibition, diclofenac 4'-hydroxylation in pooled HLMs. To be noted: DHM 100 μM. The format is in vitro ADME. Here is the method:
as §1, §2

Data set [7] addresses T7, CYP2C19 (Homo sapiens, UniProt P33261).
T7 construct: from tissue; host or cells: pooled human liver microsomes
The data set can be described thus: CYP2C19 inhibition, S-mephenytoin 4-hydroxylation in pooled HLMs. The format is in vitro ADME. To be noted: DHM 100 μM. Here is the method: as §1, §2

The target in data set [8] is T8, CYP2C8 (Homo sapiens, UniProt P10632).
T8 construct: from tissue; host or cells: pooled human liver microsomes
T8 sequence (P10632 1-490): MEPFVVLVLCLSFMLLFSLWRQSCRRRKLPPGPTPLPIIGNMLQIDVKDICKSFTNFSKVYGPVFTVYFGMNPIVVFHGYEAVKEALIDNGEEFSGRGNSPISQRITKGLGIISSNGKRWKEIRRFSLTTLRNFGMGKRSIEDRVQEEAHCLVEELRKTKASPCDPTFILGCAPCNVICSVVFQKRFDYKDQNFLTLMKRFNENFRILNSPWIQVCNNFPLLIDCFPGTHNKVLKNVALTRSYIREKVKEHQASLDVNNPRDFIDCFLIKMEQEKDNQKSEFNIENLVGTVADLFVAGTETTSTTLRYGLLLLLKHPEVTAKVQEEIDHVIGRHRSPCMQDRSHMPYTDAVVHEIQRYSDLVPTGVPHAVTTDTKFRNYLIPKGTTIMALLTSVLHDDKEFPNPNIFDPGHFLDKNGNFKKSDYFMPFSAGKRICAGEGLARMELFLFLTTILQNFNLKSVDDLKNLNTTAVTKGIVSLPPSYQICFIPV
The data set can be described thus: CYP2C8 inhibition, paclitaxel 6α-hydroxylation in pooled HLMs. To be noted: DHM 100 μM. It is filed as in vitro ADME. As for the experimental part: as §1, §2

Data set [9] addresses T2, CYP3A4. The data set can be described thus: Time-dependent inhibition study of CYP3A4 in HLMs. The format is in vitro ADME. As for the experimental part: (§6) To determine whether DHM could inhibit the activity of CYP3A4, CYP2E1 and CYP2D6 in a time-dependent manner, DHM (20 μM) was pre-incubated with HLMs (1 mg/mL) in the presence of an NADPH-generating system for 30 min at 37 °C. After incubation, an aliquot (20 μL) was transferred to another incubation tube (a final volume of 200 μL) containing an NADPH-generating system and probe substrates whose final concentrations were approximate to Km. Then, further incubations were performed to measure the residual activity. After being incubated for 10 and 30 min, the reactions were terminated by adding a 100 μL acetonitrile internal standard mix and then placed on ice; the corresponding metabolites was determined by HPLC.
To determine the KI and kinact values for the inactivation of CYP3A4, the incubations were conducted using higher probe substrate concentrations (approximately four-fold Km values) and various concentrations of DHM (0–50 μM) after different preincubation times (0–30 min), with a two-step incubation scheme, as described above.

In data set [10] the target is T4, CYP2E1. The data set can be described thus: Time-dependent inhibition study of CYP2E1 in HLMs. The format is in vitro ADME. Conditions: DHM 20 μM, pre-incubation with HLM and NADPH for 30 min. Here is the method: as §6
Data set [11] has as its target T5, CYP2D6. The data set can be described thus: Time-dependent inhibition study of CYP2D6 in HLMs. The format is in vitro ADME. Conditions: DHM 20 μM, pre-incubation with HLM and NADPH for 30 min. As for the experimental part:
as §6

Details of data set [12]: method as in Zhang et al. [2007]; Tong et al. [2015]. To be noted: rats, oral administration of 1564.8 mg/kg of Rattan Tea decoction; ref Zhang et al. [2007]; Tong et al. [2015]; cited from earlier work.

Molecules are shown by their SMILES.

T7 sequence (P33261 whole entry): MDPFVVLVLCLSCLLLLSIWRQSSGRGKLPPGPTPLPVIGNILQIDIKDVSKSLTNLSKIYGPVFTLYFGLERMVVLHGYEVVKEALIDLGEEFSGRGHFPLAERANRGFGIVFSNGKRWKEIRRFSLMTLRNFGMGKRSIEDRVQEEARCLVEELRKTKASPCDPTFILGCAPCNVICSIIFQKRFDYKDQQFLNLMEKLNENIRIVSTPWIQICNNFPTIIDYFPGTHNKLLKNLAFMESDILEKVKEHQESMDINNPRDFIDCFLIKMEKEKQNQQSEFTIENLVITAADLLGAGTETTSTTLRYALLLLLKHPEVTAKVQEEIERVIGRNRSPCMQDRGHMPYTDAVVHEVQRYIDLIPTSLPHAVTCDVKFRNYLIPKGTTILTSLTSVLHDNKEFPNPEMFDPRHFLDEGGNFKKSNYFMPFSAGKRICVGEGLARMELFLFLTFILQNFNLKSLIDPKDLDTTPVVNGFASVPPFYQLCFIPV
T6 sequence (P11712 whole entry): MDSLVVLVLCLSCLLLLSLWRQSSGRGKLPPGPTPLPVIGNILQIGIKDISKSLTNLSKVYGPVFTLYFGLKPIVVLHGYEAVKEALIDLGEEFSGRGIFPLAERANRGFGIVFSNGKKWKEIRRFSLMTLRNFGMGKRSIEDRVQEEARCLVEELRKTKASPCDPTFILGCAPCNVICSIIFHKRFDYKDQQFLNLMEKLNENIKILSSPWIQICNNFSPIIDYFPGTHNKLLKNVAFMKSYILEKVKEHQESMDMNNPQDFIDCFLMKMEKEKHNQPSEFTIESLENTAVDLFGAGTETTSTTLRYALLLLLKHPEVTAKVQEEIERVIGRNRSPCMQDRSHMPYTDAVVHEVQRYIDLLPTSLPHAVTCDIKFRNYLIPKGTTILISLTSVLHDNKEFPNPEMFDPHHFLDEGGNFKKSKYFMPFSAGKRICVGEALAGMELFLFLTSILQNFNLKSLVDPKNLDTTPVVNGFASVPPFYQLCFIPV

For the compound `O=C1c2c(O)cc(O)cc2O[C@H](c2cc(O)c(O)c(O)c2)[C@H]1O` [DHM, Dihydromyricetin], in data set [1], the “Inhibition of CYP1A2 activity” value is “did not inhibit”. Also, the IC50 (as a rule, the concentration that gives 50% inhibition) in data set [2] (DHM 0–100 μM, pooled HLMs) stood at 14.8 µM; in data set [4] (DHM 0–100 μM, pooled HLMs) it was 25.7 µM; in data set [5] (DHM 0–100 μM, pooled HLMs), 22.7 µM. Further, in [2] (Lineweaver–Burk plots), the “Manner of inhibition of CYP3A4” value was “non-competitive”. Also, the inhibition at 100 μM in data set [2] (human, pooled human liver microsomes, pH 7.4, probe testosterone (6β-hydroxylation), DHM 100 μM, pooled HLMs, read-out: CYP3A4 activity inhibited to % of control activity) turned out to be 87.7%; in data set [4] (human, pooled human liver microsomes, pH 7.4, probe chlorzoxazone (6-hydroxylation), DHM 100 μM, pooled HLMs, read-out: CYP2E1 activity inhibited to % of control activity), 74.6%; in [5] (human, pooled human liver microsomes, pH 7.4, probe dextromethorphan (O-demethylation), DHM 100 μM, pooled HLMs, read-out: CYP2D6 activity inhibited to % of control activity), 85.3%. The Ki (commonly a measure of affinity in units of concentration, obtained from inhibition or displacement) in data set [2] (secondary Lineweaver–Burk plot, testosterone 20–100 μM, pooled HLM) amounted to 6.06 µM; in data set [4] (secondary Lineweaver–Burk plot, chlorzoxazone, DHM 0–50 μM, pooled HLM) it was 9.24 µM; in [5] (secondary Lineweaver–Burk plot, dextromethorphan 5–50 μM, DHM 0–50 μM, pooled HLM), 10.5 µM. Also, the “Inhibition of CYP2A6 activity” value in data set [3] is listed as “did not inhibit”. The “Manner of inhibition of CYP2E1” value in data set [4] (Lineweaver–Burk plots) is “competitive”. In addition, the “Manner of inhibition of CYP2D6” value in data set [5] (Lineweaver–Burk plots) is recorded as “competitive”. Moreover, the “Inhibition of CYP2C9 activity” value in data set [6] is reported as “did not inhibit”. Also, the “Inhibition of CYP2C19 activity” value in [7] is “did not inhibit”. Also, the “Inhibition of CYP2C8 activity” value in data set [8] was “did not inhibit”. Also, the “Time-dependent inhibition: activity of CYP3A4 after pre-incubation” value in [9] (DHM 20 μM, pre-incubation with HLM and NADPH for 30 min) is reported as “decreased with the incubation time”. Moreover, the KI (inactivation) in data set [9] (human, human liver microsomes, DHM 0–50 μM, preincubation 0–30 min, non-linear regression, HLM) is 12.2 µM. Moreover, the kinact (usually the rate constant of inactivation at saturating inhibitor) in data set [9] (human, human liver microsomes, DHM 0–50 μM, preincubation 0–30 min, non-linear regression, HLM, read-out: Kinact for inactivation of CYP3A4 (converted)) was 0.00095 s⁻¹. In addition, the “CYP3A4 inactivated each minute” value in [9] (saturating concentration of DHM incubated with HLM, implied by Kinact) is listed as “approximately 5.7%”. The “Time-dependent inhibition: activity of CYP2E1 after pre-incubation” value in [10] is “not affected”. The “Time-dependent inhibition: activity of CYP2D6 after pre-incubation” value in data set [11] is listed as “not affected”. For the same compound, the Cmax – broadly, the peak of the concentration-time curve – in [12] was 1700 ng/mL.

The record behind these values is article PMC7012011, “In vitro inhibitory effects of dihydromyricetin on human liver cytochrome P450 enzymes” (Pharmaceutical Biology, 2017).
